In ChEMBL document CHEMBL1141380 (J Med Chem, 2007):
In brackets after ≈: the same amount, converted by molar mass.

Legend:
[1] = molecular target: Vascular endothelial growth factor receptor 2 (Homo sapiens, UniProt P35968)
Description: Inhibition of KDR by HTRF assay

[2] = Mean residence time in rat; assay type: ADME, organism-based; conditions: in vivo
Angiopoietin-1 receptor [3] = molecular target: T1, Angiopoietin-1 receptor (Homo sapiens, UniProt Q02763); test: Inhibition of Tie2 by HTRF assay
Angiopoietin-1 receptor [4] = molecular target: T1, Angiopoietin-1 receptor; test: Inhibition of angiopoietin-1-stimulated Tie2 phosphorylation in EA.hy926 cells; assay type: functional, cell-based
[5] = Clearance in iv dosed rat; assay type: ADME, organism-based; conditions: in vivo
[6] = Solubility in 0.01N HCl; assay type: physicochemical
[7] = molecular target: Vascular endothelial growth factor receptor 2 and tyrosine-protein kinase TIE-2 (KDR and TIE2) (Homo sapiens) (UniProt P35968+Q02763); test: Selectivity for Tie2 over KDR; assay type: protein assay
Vascular endothelial growth factor receptor 2 and tyrosine-protein kinase TIE-2 (KDR and TIE2) (Homo sapiens), sequence (P35968 whole entry, looked up): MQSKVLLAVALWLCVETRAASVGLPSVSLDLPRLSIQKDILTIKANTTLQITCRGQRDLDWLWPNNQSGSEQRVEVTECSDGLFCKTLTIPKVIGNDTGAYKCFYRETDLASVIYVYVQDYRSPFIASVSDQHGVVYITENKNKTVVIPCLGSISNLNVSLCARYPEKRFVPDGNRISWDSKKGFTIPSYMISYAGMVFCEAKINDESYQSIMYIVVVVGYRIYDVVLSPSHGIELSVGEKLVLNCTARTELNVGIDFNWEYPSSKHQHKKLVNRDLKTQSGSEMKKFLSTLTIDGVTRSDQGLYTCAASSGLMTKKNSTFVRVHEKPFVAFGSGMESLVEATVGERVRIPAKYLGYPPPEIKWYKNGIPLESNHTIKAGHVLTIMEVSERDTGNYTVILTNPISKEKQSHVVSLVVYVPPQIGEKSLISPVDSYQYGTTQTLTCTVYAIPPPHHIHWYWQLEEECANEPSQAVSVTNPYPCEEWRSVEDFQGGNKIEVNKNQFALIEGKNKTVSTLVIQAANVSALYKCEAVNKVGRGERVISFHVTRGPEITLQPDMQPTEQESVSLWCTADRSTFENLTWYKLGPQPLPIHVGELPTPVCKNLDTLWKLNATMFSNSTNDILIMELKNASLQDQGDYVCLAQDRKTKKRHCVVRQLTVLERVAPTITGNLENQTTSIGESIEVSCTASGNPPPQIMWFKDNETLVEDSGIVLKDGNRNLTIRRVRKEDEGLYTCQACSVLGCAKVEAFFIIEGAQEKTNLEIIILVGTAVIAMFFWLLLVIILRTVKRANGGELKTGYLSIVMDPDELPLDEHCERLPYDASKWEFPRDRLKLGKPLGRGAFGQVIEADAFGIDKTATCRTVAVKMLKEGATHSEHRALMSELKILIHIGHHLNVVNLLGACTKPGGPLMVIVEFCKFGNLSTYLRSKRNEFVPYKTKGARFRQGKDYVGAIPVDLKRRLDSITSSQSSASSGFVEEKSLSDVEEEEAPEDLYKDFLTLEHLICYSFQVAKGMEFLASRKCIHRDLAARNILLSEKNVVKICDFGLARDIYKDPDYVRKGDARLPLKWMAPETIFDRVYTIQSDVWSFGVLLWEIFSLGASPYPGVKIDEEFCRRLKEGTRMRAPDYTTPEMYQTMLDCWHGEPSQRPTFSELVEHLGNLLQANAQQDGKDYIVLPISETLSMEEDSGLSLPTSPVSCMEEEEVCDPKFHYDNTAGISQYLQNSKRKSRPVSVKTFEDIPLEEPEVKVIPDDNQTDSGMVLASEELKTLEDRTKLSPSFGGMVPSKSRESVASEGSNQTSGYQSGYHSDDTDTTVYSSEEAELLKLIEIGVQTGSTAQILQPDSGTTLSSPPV
Vascular endothelial growth factor receptor 2 and tyrosine-protein kinase TIE-2 (KDR and TIE2) (Homo sapiens), sequence (Q02763 whole entry, looked up): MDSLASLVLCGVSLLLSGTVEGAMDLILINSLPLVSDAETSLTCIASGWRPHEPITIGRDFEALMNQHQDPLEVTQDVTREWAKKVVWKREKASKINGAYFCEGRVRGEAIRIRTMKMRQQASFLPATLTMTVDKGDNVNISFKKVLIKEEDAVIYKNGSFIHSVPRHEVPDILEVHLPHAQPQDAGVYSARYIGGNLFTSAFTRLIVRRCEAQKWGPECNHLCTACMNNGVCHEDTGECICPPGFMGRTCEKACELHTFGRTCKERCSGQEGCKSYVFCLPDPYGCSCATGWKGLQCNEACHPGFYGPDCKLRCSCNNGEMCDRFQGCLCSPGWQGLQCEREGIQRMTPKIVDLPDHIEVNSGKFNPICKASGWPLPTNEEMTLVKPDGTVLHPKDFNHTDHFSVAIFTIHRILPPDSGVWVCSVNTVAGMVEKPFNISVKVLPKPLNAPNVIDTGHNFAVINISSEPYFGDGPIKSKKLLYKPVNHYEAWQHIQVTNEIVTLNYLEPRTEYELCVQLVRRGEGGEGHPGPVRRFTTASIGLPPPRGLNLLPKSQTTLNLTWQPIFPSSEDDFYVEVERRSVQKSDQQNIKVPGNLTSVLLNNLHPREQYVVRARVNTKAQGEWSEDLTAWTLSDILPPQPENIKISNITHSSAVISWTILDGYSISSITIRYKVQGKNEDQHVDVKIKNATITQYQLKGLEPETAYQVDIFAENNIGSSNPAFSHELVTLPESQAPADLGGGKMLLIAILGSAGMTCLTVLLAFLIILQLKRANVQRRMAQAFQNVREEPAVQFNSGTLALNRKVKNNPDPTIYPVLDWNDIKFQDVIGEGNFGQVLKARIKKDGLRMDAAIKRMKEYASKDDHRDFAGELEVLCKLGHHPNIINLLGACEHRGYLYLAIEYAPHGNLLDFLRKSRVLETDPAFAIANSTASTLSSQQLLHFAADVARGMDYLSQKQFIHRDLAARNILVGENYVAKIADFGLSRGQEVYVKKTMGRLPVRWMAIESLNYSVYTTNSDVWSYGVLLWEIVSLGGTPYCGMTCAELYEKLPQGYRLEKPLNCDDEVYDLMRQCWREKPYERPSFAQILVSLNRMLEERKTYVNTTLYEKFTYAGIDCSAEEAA

[8] = Oral bioavailability in Sprague-Dawley rat at 10 mg/kg, po; assay type: ADME, organism-based; conditions: in vivo

T1 sequence (Q02763 whole entry): as the sequence (Q02763 whole entry, looked up) above
Vascular endothelial growth factor receptor 2, sequence (P35968 whole entry): as the sequence (P35968 whole entry, looked up) above

| Compound | IC50 [1] [µM] | IC50 (Angiopoietin-1 receptor [3]) [µM] | IC50 (Angiopoietin-1 receptor [4]) [µM] | clearance [5] [L/h/kg] | other results |
| --- | --- | --- | --- | --- | --- |
| CNc1ncnc(-c2cccnc2Oc2cc(C(=O)Nc3cc(C4CCCCC4)ccc3OC)ccc2C)n1 | > 25 | 0.022 | 0.061 | 0.77 | MRT [2]: 28.2 min |
| CNc1nccc(-c2cccnc2Oc2cc(C(=O)Nc3cc(C(F)(F)F)ccc3N3CCOCC3)ccc2C)n1 | 0.31 |  |  |  |  |
| COc1ccc(C(F)(F)F)cc1NC(=O)c1ccc(C)c(Oc2ncccc2-c2ccncn2)c1 | 0.1 |  |  |  |  |
| COc1ccc(C2CCCCC2)cc1NC(=O)c1ccc(C)c(Oc2ncccc2-c2ccnc3ccccc23)c1 | > 25 | > 25 |  |  |  |
| CNc1nccc(-c2cccnc2Oc2cccc(C(=O)Nc3cc(C(F)(F)F)ccc3N3CCCCC3)c2)n1 | > 8 | 0.099 | 0.368 | 3.24 |  |
| Cc1ccc(C(=O)Nc2cc(C(F)(F)F)ccc2N2CCOCC2)cc1Oc1ncccc1-c1ccncn1 | > 25 |  |  |  |  |
| CNc1ncnc(-c2cccnc2Oc2cc(C(=O)Nc3cccc(C(F)(F)F)c3)ccc2C)n1 | 0.097 | 0.01 | 0.038 |  |  |

Further lines, with some results ahead:

| IC50 [1] [µM] | IC50 (Angiopoietin-1 receptor [3]) [µM] | IC50 (Angiopoietin-1 receptor [4]) [µM] | clearance [5] [L/h/kg] | Compound | other results |
| --- | --- | --- | --- | --- | --- |
| 0.461 |  |  |  | CNc1nccc(-c2cccnc2Oc2cc(C(=O)Nc3cc(C(F)(F)F)ccc3N3CCCCC3)ccc2C)n1 |  |
| 0.435 |  |  |  | Cc1ccc(C(=O)Nc2ccccc2)cc1Nc1ncccc1-c1ccncn1 |  |
| 0.038 | 0.085 |  |  | COc1cc(Nc2ncnc(-c3cccnc3Nc3cccc(C(=O)Nc4ccc(Oc5ccccc5)cc4)c3)n2)cc(OC)c1OC |  |
| 2.6 | 0.388 |  |  | CNc1nccc(-c2cc(C)cnc2Oc2cccc(C(=O)Nc3cc(C(F)(F)F)ccc3N3CCCCC3)c2C)n1 |  |
| 0.177 | 0.504 |  |  | Cc1ccc(C(=O)Nc2ccc(C(F)(F)F)cc2)cc1Nc1ncccc1-c1ccncn1 | solubility [6]: 1 µg/mL (≈ 2.23 µM) |
| 2 |  |  | 1.53 | CNc1nccc(-c2cccnc2Oc2cc(C(=O)Nc3cc(C(F)(F)F)ccc3N3CCCCC3)ccc2F)n1 |  |
| 4 | 0.059 | 0.14 | 0.921 | CNc1ncnc(-c2cccnc2Oc2cc(C(=O)Nc3cc(C(F)(F)F)ccc3N(C)CCCN(C)C)ccc2C)n1 |  |
| > 25 | 0.04 | 0.244 | 0.34 | CNc1nccc(-c2cccnc2Oc2ccc(F)c(C(=O)Nc3cc(C(F)(F)F)ccc3N3CCCCC3)c2)n1 | Selectivity ratio [7]: > 500; bioavailability [8]: 0.3% |
